In ChEMBL document CHEMBL1909046, “DrugMatrix in vitro pharmacology data”:

How the values were obtained:
[1] = molecular target: T1, C-X-C chemokine receptor type 1 (Homo sapiens, UniProt P25024); note: in other assays of this panel Not Active means under 50% inhibition at 10 µM
T1 sequence (P25024 whole entry): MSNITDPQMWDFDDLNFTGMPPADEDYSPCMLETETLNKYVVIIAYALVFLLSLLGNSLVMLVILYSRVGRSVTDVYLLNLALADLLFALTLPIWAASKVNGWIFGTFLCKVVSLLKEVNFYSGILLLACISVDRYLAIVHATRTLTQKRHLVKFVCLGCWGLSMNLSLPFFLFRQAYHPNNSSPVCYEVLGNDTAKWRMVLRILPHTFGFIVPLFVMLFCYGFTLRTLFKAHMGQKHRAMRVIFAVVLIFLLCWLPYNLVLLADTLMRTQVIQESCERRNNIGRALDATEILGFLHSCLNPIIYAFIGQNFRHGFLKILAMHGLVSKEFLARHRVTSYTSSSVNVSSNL

[2] = molecular target: Estrogen receptor beta (Homo sapiens, UniProt Q92731); conditions: sf9; note: in other assays of this panel Not Active means under 50% inhibition at 10 µM
[3] = DRUGMATRIX: Calcium Channel Type L, Phenylalkylamine radioligand binding (ligand: [3H] (-)-Desmethoxyverapamil (D-888)); assay type: cell membranes, Rattus norvegicus, Wistar, Brain, Membrane; conditions: Not Active = under 50% inhibition at 10 µM
[4] = molecular target: T2, 5-hydroxytryptamine receptor 2C (Homo sapiens, UniProt P28335); assay: DRUGMATRIX: Serotonin (5-Hydroxytryptamine) 5-HT2C radioligand binding (ligand: [3H] Mesulergine); assay type: cell membranes, CHO-K1, Membrane; conditions: Not Active = under 50% inhibition at 10 µM
T2 sequence (P28335 whole entry): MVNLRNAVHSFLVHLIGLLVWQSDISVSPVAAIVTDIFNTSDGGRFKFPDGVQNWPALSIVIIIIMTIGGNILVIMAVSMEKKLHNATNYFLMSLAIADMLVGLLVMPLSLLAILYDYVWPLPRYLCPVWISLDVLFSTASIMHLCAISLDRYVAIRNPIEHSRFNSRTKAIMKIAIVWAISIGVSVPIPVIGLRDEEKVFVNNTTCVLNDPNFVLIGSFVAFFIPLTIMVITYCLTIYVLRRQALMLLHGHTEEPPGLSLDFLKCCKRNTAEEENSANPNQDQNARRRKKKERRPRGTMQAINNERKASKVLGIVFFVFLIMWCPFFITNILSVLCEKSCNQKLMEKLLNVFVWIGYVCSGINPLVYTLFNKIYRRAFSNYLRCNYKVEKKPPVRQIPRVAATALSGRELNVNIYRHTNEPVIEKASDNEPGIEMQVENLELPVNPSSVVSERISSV

[5] = molecular target: T3, Leukotriene C4 synthase (Cavia porcellus, UniProt A6XA80); assay: biochemical; assay type: tissue-based, Lung;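 note: enzyme inhibition assay of leukotriene C4 synthase, using LTA4 as the substrate; in other assays of this panel Not Active means under 50% inhibition at 10 µM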
T3 sequence (A6XA80 whole entry): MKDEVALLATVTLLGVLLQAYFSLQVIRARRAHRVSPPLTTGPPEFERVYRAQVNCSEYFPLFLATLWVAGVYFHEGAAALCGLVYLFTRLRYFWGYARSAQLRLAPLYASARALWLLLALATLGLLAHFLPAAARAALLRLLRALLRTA

[6] = molecular target: T4, Interstitial collagenase (Homo sapiens, UniProt P03956); assay: biochemical; assay type: tissue-based, Rheumatoid synovial fibroblasts;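 note: MMP-1 enzyme inhibition assay using a peptide substrate; in other assays of this panel Not Active means under 50% inhibition at 10 µM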
T4 sequence (P03956 whole entry): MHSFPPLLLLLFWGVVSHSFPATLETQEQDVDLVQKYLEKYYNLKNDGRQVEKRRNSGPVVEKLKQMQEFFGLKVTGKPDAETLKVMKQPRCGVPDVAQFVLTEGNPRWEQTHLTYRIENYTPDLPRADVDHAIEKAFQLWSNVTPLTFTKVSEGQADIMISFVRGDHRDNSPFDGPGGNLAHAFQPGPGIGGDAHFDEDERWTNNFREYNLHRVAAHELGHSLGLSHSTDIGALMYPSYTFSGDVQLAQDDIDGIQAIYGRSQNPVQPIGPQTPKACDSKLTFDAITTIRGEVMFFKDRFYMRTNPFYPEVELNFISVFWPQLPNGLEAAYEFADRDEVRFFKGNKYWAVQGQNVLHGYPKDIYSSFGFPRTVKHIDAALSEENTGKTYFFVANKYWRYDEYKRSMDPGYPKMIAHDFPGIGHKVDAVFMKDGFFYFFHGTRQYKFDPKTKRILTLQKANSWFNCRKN

[7] = molecular target: T5, B2 bradykinin receptor (Homo sapiens, UniProt P30411); assay type: cell membranes, Membrane; conditions: chem-1; note: in other assays of this panel Not Active means under 50% inhibition at 10 µM
T5 sequence (P30411 whole entry): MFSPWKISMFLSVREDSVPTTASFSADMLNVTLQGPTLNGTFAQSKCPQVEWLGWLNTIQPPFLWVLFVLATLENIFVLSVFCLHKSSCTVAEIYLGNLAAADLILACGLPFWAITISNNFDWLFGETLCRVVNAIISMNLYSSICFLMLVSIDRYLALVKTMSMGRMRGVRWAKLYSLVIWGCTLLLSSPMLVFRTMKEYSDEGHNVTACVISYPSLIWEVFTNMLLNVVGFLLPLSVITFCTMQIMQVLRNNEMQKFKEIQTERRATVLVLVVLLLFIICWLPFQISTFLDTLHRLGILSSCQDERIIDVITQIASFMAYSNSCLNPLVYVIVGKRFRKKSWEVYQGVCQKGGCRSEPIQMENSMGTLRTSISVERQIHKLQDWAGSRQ

[8] = molecular target: T6, C-C chemokine receptor type 4 (Homo sapiens, UniProt P51679); assay type: cell membranes, Chem-1, Membrane; conditions: chem-1; note: in other assays of this panel Not Active means under 50% inhibition at 10 µM
T6 sequence (P51679 whole entry): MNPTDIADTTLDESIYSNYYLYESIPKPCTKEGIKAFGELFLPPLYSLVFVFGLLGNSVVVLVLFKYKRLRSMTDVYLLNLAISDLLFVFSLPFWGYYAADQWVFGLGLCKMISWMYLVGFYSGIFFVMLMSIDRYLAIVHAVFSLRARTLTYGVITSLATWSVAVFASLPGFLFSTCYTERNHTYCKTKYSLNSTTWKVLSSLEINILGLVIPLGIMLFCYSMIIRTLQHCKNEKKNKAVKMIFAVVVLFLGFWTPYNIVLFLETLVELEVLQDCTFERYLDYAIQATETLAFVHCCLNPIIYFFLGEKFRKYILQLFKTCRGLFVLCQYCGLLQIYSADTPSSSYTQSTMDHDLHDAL

Estrogen receptor beta, sequence (Q92731 whole entry): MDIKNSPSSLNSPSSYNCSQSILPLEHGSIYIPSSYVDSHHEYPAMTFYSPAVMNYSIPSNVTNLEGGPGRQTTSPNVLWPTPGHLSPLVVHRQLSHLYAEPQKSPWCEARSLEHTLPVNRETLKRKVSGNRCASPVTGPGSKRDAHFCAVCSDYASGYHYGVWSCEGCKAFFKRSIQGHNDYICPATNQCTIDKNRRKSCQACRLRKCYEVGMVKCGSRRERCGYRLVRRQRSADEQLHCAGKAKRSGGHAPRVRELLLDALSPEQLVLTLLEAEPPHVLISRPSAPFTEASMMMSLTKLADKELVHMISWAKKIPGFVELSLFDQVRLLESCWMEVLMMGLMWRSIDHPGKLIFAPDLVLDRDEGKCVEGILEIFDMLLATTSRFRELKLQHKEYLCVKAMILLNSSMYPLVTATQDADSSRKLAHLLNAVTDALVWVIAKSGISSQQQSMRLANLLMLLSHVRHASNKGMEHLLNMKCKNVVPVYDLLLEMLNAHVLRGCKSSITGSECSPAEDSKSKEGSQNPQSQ

Row | Compound | IC50 [1] | IC50 [2] | IC50 [3] | Ki [3] | IC50 ([4]; cho-k1) | IC50 [5] | IC50 [6] | IC50 [7] | IC50 [8] | IC50 ([4]; read-out: IC50) [nM] | Ki ([4]; read-out: Ki) [nM] | IC50 ([3]; read-out: IC50) [nM] | Ki ([3]; read-out: Ki) [nM] | Ki [1] | Ki [2] | Ki ([4]; cho-k1) | Ki [5] | Ki [6] | Ki [7] | Ki [8]
1 | Cc1ccnc2c1NC(=O)c1cccnc1N2C1CC1 [NEVIRAPINE] | Not Active | Not Active | Not Active | Not Active | Not Active | Not Active | Not Active | Not Active | Not Active | – | – | – | – | – | – | – | – | – | – | –
2 | Clc1cc(Cl)c(OCC#CI)cc1Cl [HALOPROGIN] | Not Active | Not Active | Not Active | Not Active | – | Not Active | Not Active | Not Active | Not Active | 2600 | 1360 | – | – | – | – | – | – | – | – | –
3 | COc1ccccc1OCCNCC(O)COc1cccc2[nH]c3ccccc3c12 (stereo not given) [CARVEDILOL] | Not Active | Not Active | – | – | – | Not Active | Not Active | Not Active | Not Active | 115 | 60 | 389 | 378 | – | – | – | – | – | – | –
4 | CCN1CCN(c2cc3c(cc2F)c(=O)c(C(=O)O)cn3C2CC2)CC1 [ENROFLOXACIN] | Not Active | Not Active | Not Active | Not Active | Not Active | Not Active | Not Active | Not Active | Not Active | – | – | – | – | – | – | – | – | – | – | –
5 | POVIDONE | Not Active | Not Active | Not Active | Not Active | Not Active | Not Active | Not Active | Not Active | Not Active | – | – | – | – | Not Active | Not Active | Not Active | Not Active | Not Active | Not Active | Not Active
6 | NC(=O)CN1CCCC1=O | Not Active | Not Active | Not Active | Not Active | Not Active | Not Active | Not Active | Not Active | Not Active | – | – | – | – | – | – | – | – | – | – | –
7 | CO[C@H]1O[C@@H]2O[C@@]3(C)CC[C@H]4[C@H](C)CC[C@@H]([C@H]1C)[C@@]24OO3 | Not Active | Not Active | Not Active | Not Active | Not Active | Not Active | Not Active | Not Active | Not Active | – | – | – | – | – | – | – | – | – | – | –
8 | Oc1ncnc2[nH]ncc12 [ALLOPURINOL] | Not Active | Not Active | Not Active | Not Active | Not Active | Not Active | Not Active | Not Active | Not Active | – | – | – | – | – | – | – | – | – | – | –
9 | NCC(CC(=O)O)c1ccc(Cl)cc1 (stereo not given) [BACLOFEN] | Not Active | Not Active | Not Active | Not Active | Not Active | Not Active | Not Active | Not Active | Not Active | – | – | – | – | – | – | – | – | – | – | –
10 | O=C1CN(/N=C/c2ccc([N+](=O)[O-])o2)C(=O)N1 [NITROFURANTOIN] | Not Active | Not Active | Not Active | Not Active | Not Active | Not Active | Not Active | Not Active | Not Active | – | – | – | – | – | – | – | – | – | – | –
11 | CC12CCC(CC1=O)C2(C)C (stereo not given) [CAMPHOR] | Not Active | Not Active | Not Active | Not Active | Not Active | Not Active | Not Active | Not Active | Not Active | – | – | – | – | – | – | – | – | – | – | –
12 | CN(Cc1cc(Br)cc(Br)c1N)C1CCCCC1 [BROMHEXINE] | Not Active | Not Active | Not Active | Not Active | Not Active | Not Active | Not Active | Not Active | Not Active | – | – | – | – | – | – | – | – | – | – | –
13 | COPPER(II) OXIDE | Not Active | Not Active | Not Active | Not Active | Not Active | Not Active | Not Active | Not Active | Not Active | – | – | – | – | Not Active | Not Active | Not Active | Not Active | Not Active | Not Active | Not Active
14 | CC(CN1c2ccccc2Sc2ccccc21)N(C)C (stereo not given) [PROMETHAZINE] | Not Active | Not Active | – | – | – | Not Active | Not Active | Not Active | Not Active | 12 | 6.48 | 866 | 842 | – | – | – | – | – | – | –
15 | CC(C)(c1ccc(O)cc1)c1ccc(O)cc1 [BISPHENOL A] | Not Active | Not Active | Not Active | Not Active | Not Active | Not Active | Not Active | Not Active | Not Active | – | – | – | – | – | – | – | – | – | – | –
16 | CC(=O)Nc1ccc2c(c1)Cc1ccccc1-2 [2-ACETYLAMINOFLUORENE] | Not Active | Not Active | Not Active | Not Active | – | Not Active | Not Active | Not Active | Not Active | 2140 | 1120 | – | – | – | – | – | – | – | – | –
17 | Cc1cc(C(C)(C)C)c(O)c(C)c1CC1=NCCN1 [OXYMETAZOLINE] | Not Active | Not Active | – | – | – | Not Active | Not Active | Not Active | Not Active | 578 | 303 | 2250 | 2180 | – | – | – | – | – | – | –
18 | c1ccc(Cn2ccnc2)cc1 | Not Active | Not Active | Not Active | Not Active | Not Active | Not Active | Not Active | Not Active | Not Active | – | – | – | – | – | – | – | – | – | – | –
19 | CC(N)Cc1c[nH]c2ccc(OCc3cccs3)cc12 (stereo not given) [BW-723C86] | Not Active | Not Active | – | – | – | Not Active | Not Active | Not Active | Not Active | 204 | 107 | 4340 | 4220 | – | – | – | – | – | – | –
20 | CCO [ALCOHOL] | Not Active | Not Active | Not Active | Not Active | Not Active | Not Active | Not Active | Not Active | Not Active | – | – | – | – | – | – | – | – | – | – | –
